PMC9541843, “N‐terminal alterations turn the gut hormone GLP‐2 into an antagonist with gradual loss of GLP‐2 receptor selectivity towards more GLP‐1 receptor interaction” (British Journal of Pharmacology, 2022)
Peptide text beside a SMILES is read from it. * marks the point of attachment. C16 diacid = O=C(O)CCCCCCCCCCCCCCC(=O)*

Tests used:
[1] = biological target: T1, human GLP‐1R (Homo sapiens, UniProt P43220); assay: cAMP accumulation, agonism (selectivity)
[2] = biological target: T2, human GLP‐2R (Homo sapiens, UniProt O95838); assay: cAMP accumulation, inhibition of GLP‐2‐induced activation
T2 sequence (O95838 1-553): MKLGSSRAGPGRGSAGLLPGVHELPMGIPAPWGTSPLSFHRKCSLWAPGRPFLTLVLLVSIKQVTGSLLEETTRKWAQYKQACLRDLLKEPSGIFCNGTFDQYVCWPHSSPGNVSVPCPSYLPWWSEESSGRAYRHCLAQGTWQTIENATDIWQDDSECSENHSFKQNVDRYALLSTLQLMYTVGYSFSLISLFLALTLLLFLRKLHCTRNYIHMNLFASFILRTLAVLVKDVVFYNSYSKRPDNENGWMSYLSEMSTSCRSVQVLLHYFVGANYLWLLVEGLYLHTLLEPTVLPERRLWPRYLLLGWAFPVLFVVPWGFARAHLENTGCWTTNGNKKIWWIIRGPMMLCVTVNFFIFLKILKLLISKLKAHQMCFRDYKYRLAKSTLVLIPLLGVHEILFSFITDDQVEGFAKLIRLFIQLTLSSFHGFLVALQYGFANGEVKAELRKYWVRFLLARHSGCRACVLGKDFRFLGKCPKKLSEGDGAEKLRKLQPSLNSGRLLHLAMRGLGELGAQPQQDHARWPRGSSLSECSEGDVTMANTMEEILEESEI

[3] = biological target: T1, human GLP‐1R; assay: cAMP accumulation, inhibition of GLP‐1‐mediated response (selectivity)

T1 sequence (P43220 24-463): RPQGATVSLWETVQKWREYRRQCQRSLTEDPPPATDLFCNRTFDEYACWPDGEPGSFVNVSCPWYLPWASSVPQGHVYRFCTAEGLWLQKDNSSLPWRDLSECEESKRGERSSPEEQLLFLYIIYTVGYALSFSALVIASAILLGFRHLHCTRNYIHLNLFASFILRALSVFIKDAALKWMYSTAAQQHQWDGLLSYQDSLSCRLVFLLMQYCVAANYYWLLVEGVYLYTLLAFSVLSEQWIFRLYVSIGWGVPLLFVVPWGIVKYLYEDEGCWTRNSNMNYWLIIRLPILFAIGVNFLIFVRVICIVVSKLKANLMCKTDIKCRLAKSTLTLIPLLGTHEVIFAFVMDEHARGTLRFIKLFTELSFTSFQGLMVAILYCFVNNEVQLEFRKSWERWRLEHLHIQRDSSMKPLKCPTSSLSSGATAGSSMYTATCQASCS

EC50 [1]: 2.5 nM
Efficacy of GLP‐1R activation ([1]; COS‐7 cells, human GLP‐1R, cAMP, 1 μM stimulation, n = 3 in duplicate): 16%
IC50 [2]: 11.7 nM
Inhibition of GLP‐2‐induced cAMP at the human GLP‐2R ([2]; at 1 μM peptide (highest tested concentration), COS‐7 cells): 95%
IC50 [3]: 79 nM
inhibition at 1 µM ([3]; COS-7, read-out: Inhibition of GLP‐1‐mediated cAMP response at the human GLP‐1R): 41%
SMILES: CC[C@H](C)[C@H](NC(=O)[C@H](Cc1ccccc1)NC(=O)[C@H](CC(=O)O)NC(=O)[C@H](CCCNC(=N)N)NC(=O)[C@H](C)NC(=O)[C@H](C)NC(=O)[C@H](CC(C)C)NC(=O)[C@H](CC(N)=O)NC(=O)[C@H](CC(=O)O)NC(=O)[C@H](CC(C)C)NC(=O)[C@@H](NC(=O)[C@@H](NC(=O)[C@H](CC(N)=O)NC(=O)[C@H](CCSC)NC(=O)[C@H](CCC(=O)O)NC(=O)[C@H](CC(=O)O)NC(=O)[C@H](CO)NC(=O)[C@H](Cc1ccccc1)NC(=O)[C@H](CO)NC(=O)CNC(=O)CCCCCCCCCCCCCCC(=O)O)[C@@H](C)O)[C@@H](C)CC)C(=O)N[C@@H](CC(N)=O)C(=O)N[C@@H](Cc1c[nH]c2ccccc12)C(=O)N[C@@H](CC(C)C)C(=O)N[C@H](C(=O)N[C@@H](CCC(N)=O)C(=O)N[C@H](C(=O)N[C@@H](CCCCN)C(=O)N[C@H](C(=O)N[C@H](C(=O)N[C@@H](CC(=O)O)C(=O)O)[C@@H](C)O)[C@@H](C)CC)[C@@H](C)O)[C@@H](C)CC [GLP‐2(4‐33)(C16‐diacid/4)] ({C16 diacid}-GSFSDEMNTILDNLAARDFINWLIQTKITD-OH)
